Reference: patent US9686984B2, “Macrocyclic picolinamides as fungicides” (DOW AGROSCIENCES LLC, priority 2014, dated 2017)

Assays:
Type in all cases: in vivo
Details in all cases: 100 ppm, 1 Day Protectant
Erysiphe cichoracearum = assay: Powdery Mildew of Cucumber (ERYSCI) disease control
Protocol: Technical grades of materials were dissolved in acetone, which were then mixed with nine volumes of water containing 110 ppm Triton X-100. The fungicide solutions were applied onto wheat seedlings using an automated booth sprayer to run-off. All sprayed plants were allowed to air dry prior to further handling. All fungicides were evaluated using the aforementioned method for their activity vs. all target diseases, unless stated otherwise. Wheat leaf blotch and brown rust activity were also evaluated using track spray applications, in which case the fungicides were formulated as EC formulations, containing 0.1% Trycol 5941 in the spray solutions. Wheat plants (variety Yuma) were grown from seed in a greenhouse in 50% mineral soil/50% soil-less Metro mix until the first leaf was fully emerged, with 7-10 seedlings per pot. These plants were inoculated with an aqueous spore suspension of Septoria tritici either prior to or after fungicide treatments. After inoculation the plants were kept in 100% relative humidity (one day in a dark dew chamber followed by two to three days in a lighted dew chamber at 20° C.) to permit spores to germinate and infect the leaf. The plants were then transferred to a greenhouse set at 20° C. for disease to develop. When disease symptoms were fully expressed on the 1st leaves of untreated plants, infection levels were assessed on a scale of 0 to 100 percent disease severity. Percent disease control was calculated using the ratio of disease severity on treated plants relative to untreated plants. Example F: Evaluation of Fungicidal Activity: Powdery Mildew of Cucumber (Erysiphe cichoracearum; Bayer Code […]) Cucumber seedlings (variety Bush Pickle) were grown in soil-less Metro mix, with one plant per pot, and used in the test when 12 to 14 days old. Plants were inoculated with a spore suspension 24 hr following fungicide treatments. After inoculation the plants remained in the greenhouse set at 20° C. until disease was fully expressed. […]

[1] = test system: Blumeria graminis f. sp. hordei; assay: Barley Powdery Mildew (ERYSGH) disease control
Protocol: Technical grades of materials were dissolved in acetone, which were then mixed with nine volumes of water containing 110 ppm Triton X-100. The fungicide solutions were applied onto wheat seedlings using an automated booth sprayer to run-off. All sprayed plants were allowed to air dry prior to further handling. All fungicides were evaluated using the aforementioned method for their activity vs. all target diseases, unless stated otherwise. Wheat leaf blotch and brown rust activity were also evaluated using track spray applications, in which case the fungicides were formulated as EC formulations, containing 0.1% Trycol 5941 in the spray solutions. Wheat plants (variety Yuma) were grown from seed in a greenhouse in 50% mineral soil/50% soil-less Metro mix until the first leaf was fully emerged, with 7-10 seedlings per pot. These plants were inoculated with an aqueous spore suspension of Septoria tritici either prior to or after fungicide treatments. After inoculation the plants were kept in 100% relative humidity (one day in a dark dew chamber followed by two to three days in a lighted dew chamber at 20° C.) to permit spores to germinate and infect the leaf. The plants were then transferred to a greenhouse set at 20° C. for disease to develop. When disease symptoms were fully expressed on the 1st leaves of untreated plants, infection levels were assessed on a scale of 0 to 100 percent disease severity. Percent disease control was calculated using the ratio of disease severity on treated plants relative to untreated plants. Example J: Evaluation of Fungicidal Activity: Barley Powdery Mildew (Blumeria graminis f. sp. hordei; Synonym: Erysiphe graminis f. sp. hordei; Bayer Code […]) Barley seedlings (variety Harrington) were propagated in soil-less Metro mix, with each pot having 8 to 12 plants, and used in the test when first leaf was fully emerged. Test plants were inoculated by dusting with infected stock plants 24 hr after fungicide treatments. After inoculation the plants were kept in a greenhouse set at 20° C. for disease to develop. […]

Alternaria solani = assay: Tomato Early Blight (ALTESO) disease control
Protocol: Technical grades of materials were dissolved in acetone, which were then mixed with nine volumes of water containing 110 ppm Triton X-100. The fungicide solutions were applied onto wheat seedlings using an automated booth sprayer to run-off. All sprayed plants were allowed to air dry prior to further handling. All fungicides were evaluated using the aforementioned method for their activity vs. all target diseases, unless stated otherwise. Wheat leaf blotch and brown rust activity were also evaluated using track spray applications, in which case the fungicides were formulated as EC formulations, containing 0.1% Trycol 5941 in the spray solutions. Wheat plants (variety Yuma) were grown from seed in a greenhouse in 50% mineral soil/50% soil-less Metro mix until the first leaf was fully emerged, with 7-10 seedlings per pot. These plants were inoculated with an aqueous spore suspension of Septoria tritici either prior to or after fungicide treatments. After inoculation the plants were kept in 100% relative humidity (one day in a dark dew chamber followed by two to three days in a lighted dew chamber at 20° C.) to permit spores to germinate and infect the leaf. The plants were then transferred to a greenhouse set at 20° C. for disease to develop. When disease symptoms were fully expressed on the 1st leaves of untreated plants, infection levels were assessed on a scale of 0 to 100 percent disease severity. Percent disease control was calculated using the ratio of disease severity on treated plants relative to untreated plants. Example M: Evaluation of Fungicidal Activity: Tomato Early Blight (Alternaria solani; Bayer Code […]) Tomato plants (variety Outdoor Girl) were propagated in soil-less Metro mix, with each pot having one plant, and used when 12 to 14 days old. Test plants were inoculated with an aqueous spore suspension of Alternaria solani 24 hr after fungicide treatments. […]

CCC[C@H]1OCC[C@H](NC(=O)c2nccc(OC)c2OCOC(C)=O)C(=O)O[C@@H](C)[C@@H]1Cc1ccccc1 [Compound 17]
B (≦70): ERYSCI disease control, 1DP (Erysiphe cichoracearum) | ERYSGH disease control, 1DP [1] | ALTESO disease control, 1DP (Alternaria solani)

CCCC[C@H]1OCC[C@H](NC(=O)c2nccc(OC)c2OC(C)=O)C(=O)O[C@@H](C)[C@@H]1Cc1ccccc1 [Compound 2]
B (≦70): ERYSCI disease control, 1DP (Erysiphe cichoracearum) | ERYSGH disease control, 1DP [1] | ALTESO disease control, 1DP (Alternaria solani)

COc1ccnc(C(=O)N[C@H]2CCO[C@H](Cc3ccccc3)[C@@H](Cc3ccccc3)[C@H](C)OC2=O)c1OC(C)=O [Compound 3]
B (≦70): ERYSCI disease control, 1DP (Erysiphe cichoracearum) | ERYSGH disease control, 1DP [1] | ALTESO disease control, 1DP (Alternaria solani)
